Laboratory results reported in US9180155B2, “Compositions from Nigella sativa” (Bio Nexus, Ltd, priority 2013, dated 2015).

What was measured:
[1] = test system: Caco-2 monolayers; assay: t10-CLA-induced loss of TEER in Caco-2 monolayers; format: cell-based, human; settings: t10-CLA 50 μM control = 100; μg TQ equivalents/mL: Thymoquinone 5.0, NS8 0.11, NS9 0.99, NS10 0.012, NSSpent#2 0.0005; NSSpent#1 5 μg/mL; listed as TQ
Excerpt: The protocol for growing and differentiation the human Caco-2 colon andenocarcinoma cells was a modification of Protocol 3 as described by Yamashita et al. [[…]., and Furuyama, Y. 2002) New and better protocols for a short-term Caco-2 cell culture system, J Pharm Sci 91, 669-679]. Caco-2 Human Colon Adenocarcinoma cells were obtained from ATCC (Rockville, Md.; catalog #HTB-37) and maintained in a growth media: DMEM (Dulbecco's Modified Eagles Medium 1×) containing L-glutamine, glucose; Cellgro catalog #35-010CV with the following additions: (1) Penicillin (5,000 IU/mL)/Streptomycin (5,000 μg/mL) Cellgro catalog #30-001C1, (2) 10% FBS-Fetal Bovine Serum, Characterized; Hyclone catalog #SH30071.3, and (3) 1% NEAA-Non Essential Amino Acids; Cellgro catalog #25-025-CI; cells were cultured at 37 C in a humidified air-5% CO2 atmosphere in T175 flasks. BIOCOAT^R HTS Caco-2 Assay System kits (Becton Dickinson, N.J.; catalog #354801) consisting of 24-well fibrillar collagen coated inserts and feeder trays were used in all experiments and plated as follows. Media was removed from the T175 flasks and cells were washed with 10 mLs PBS (phosphate buffered saline 1× without Ca^++, without Mg^++; Cellgro #25-053-CI). […]

[2] = test system: C2C12 myocytes; assay: Lipolysis (glycerol assay) in C2C12 myocytes; format: cell-based, murine; settings: 5 or 2.5 μg/mL (FIG. 10)
Protocol: Culture and treatment of 3T3-L1 adipocytes and C2C12 myocytes was as described in Example 5. Concentrations of the forskolin positive control and test materials are listed in FIG. 9 for adipocytes and FIG. 10 for myocytes. Free fatty acid release from 3T3-L1 adipocytes or C2C12 myocytes was quantified by measuring glycerol secretion into the medium. Glycerol was measured spectrophotometrically using the Free Glycerol Determination Kit ([…], Sigma) and an EL 312e Microplate BIO-KINETICS spectrophotometer (BioTek, Winooski, Vt.). Glycerol release from adipocytes and myocytes was expressed, respectively, as the percent increase in free fatty acid secretion (FIG. 9) and relative glycerol content (glycerol index FIG. 10) ±95% confidence intervals of eight observations for one of three representative experiments.

With `CC1=CC(=O)C(C(C)C)=CC1=O` [Thymoquinone, thymoquinone] the “Relative Loss of TEER” value [1] was “inhibited loss of TEER” and the “free fatty acid release in myocytes” value [2] was “induced free fatty acid release”.
